Laboratory results as given in patent US9260473B2, “Bivalent multifunctional ligands targeting Aβ oligomers as treatment for Alzheimer's disease” (Virginia Commonwealth University, priority 2010, dated 2016).
Each block holds one compound with its values, some of them ahead of it.

What was measured:
MC65 cells = assay: Cytotoxicity assay in MC65 cells (MTS, +TC/−TC); type: cell-based, human
Text: Protective effects of 14 on AβOs-induced cytotoxicity in MC65 cells and differentiated human neuroblastoma SH-SY5Y cells. […] To further verify whether 14 can protect cells from extracellular AβOs-induced cytotoxicity, all trans-retinoic acid differentiated human SH-SY5Y cells were employed. […] This may further indicate that while both 1 and 14 can bind to AβOs, CM/LR anchorage of 14 can increase its accessibility to intracellular target AβOs. Since CM/LR are crucial for many aspects of cell signaling and functions, 14 was further evaluated for its potential cytotoxicity in mouse spleen and natural killer (NK) cells.
Cytotoxicity assay in MC65 cells. MC65 cells were seeded in 96-well plates (4×10^4 cells/well) at 37° C., 5% CO2 for 24 hrs. The medium was removed and washed with PBS twice. Opti-MEM and test compounds were added under +TC and −TC conditions. The plates were incubated at 37° C., 5% CO2 for 72 hrs, then 20 uL CellTiter 96 AQueous One Solution (Promega, Madison, Wis.) were added to each well and the plates were incubated at 37° C., 5% CO2 for 2-4 hrs. The plates were read at 490 nm using FlexStation III plate reader (Molecular Devices). The blank with only test compounds in Opti-MEM was set up as background control for all of the tested concentrations. Each data point was averaged from six replicates and the experiments were independently repeated at least three times.

AβOs [1] = assay: Western blot assay of AβOs formation in MC65 cells (6E10 antibody); type: cell-based, human; details: 10 μM, 24 hrs after removal of TC
Text: Inhibition of AβOs production by designed BMAOIs. […] The whole cell assay is a composite of not only Aβ oligomerization inhibition but also permeability, stability and other factors will validate the accessibility and function of our BMAOIs. MC65 is a human neuroblastoma cell line that conditionally expresses C99, the C-terminus fragment of APP using tetracycline (TC) as transgene suppressor.^38 Upon removal of TC, these cells can produce intracellular Aβ aggregates including small AβOs. […] All BMAOIs were first evaluated at a single concentration of 10 μM. Candidate compounds with inhibitory activities at this concentration were further evaluated in a dose-dependent manner in the following assays. […]
Western blot assay. […] Pellet was lysed by sonication in 1× lysis buffer (62.5 mM Tris base, pH6.8, 2% SDS, 50 mM DTT, 10% glycerol, 0.1% bromphenol blue, and […] each chymostatin, leupeptin, aprotinin, pepstatin, and soybean trypsin inhibitor) and protein level was determined using Coomassie Protein Assay Reagent (Pierce, Rockford, Ill.). […]

AβOs [2] = assay: Immunocytochemistry assay of AβOs in MC65 cells (A11 antibody); type: cell-based, human; details: 10 μM, 24 hrs after removal of TC
Description: MC65 cells were treated with the indicated compounds (10 μM) immediately after the removal of TC. After 24 hrs, the cells were fixed and immunofluorescently stained for AβOs, CM/LR, and nucleus and imaged with a Leica TCS-SP2 AOBS confocal laser scanning microscope. Five areas were examined.
Immunocytochemistry assay. MC65 cells were plated onto Lab-Tee chamber slides (1×10^4 cells/well). After 24 hrs incubation at 37° C. and 5% CO2, Opti-MEM was added (with or without TC) and followed by test compounds. MC65 cells were incubated for 24 hrs. MC65 cells were rinsed 3× with PBS and incubated with Alexa 488-conjugated CTX-B (10 ug/mL) for 15 min on ice. After rinsing once with ice-cold PBS, cells were fixed for 30 min with 4% paraformaldehyde. MC65 cells were permeabilized for 30 min with 0.1% Triton X 100. Then MC65 cells were stained with A11 rabbit antibody followed by anti-rabbit Alexa 568 (1:500). Finally MC65 cells were treated with DAPI (5 ug/mL) and mounted with Vectashield Mounting Media. Cell fluorescence was analyzed by a Leica TCS-SP2 AOBS confocal laser scanning microscope equipped with blue diode, Argon, and 3 HeNe (lasers as well as a spectrophotometer based detection system with variable detector windows) using excitation lines at 355 nm, 488 nm, and 568 nm for DAPI, Alexa 488-conjugated CTX-B, and Alexa Fluor 568 donkey anti-rabbit IgG. […]

Aβ42 = biological target: T1, Aβ42 (Homo sapiens, UniProt P05067); assay: Aβ42 oligomerization inhibition assay (Western blot); type: biochemical; details: Aβ42 5 μM, compound 20 μM, 4 hrs at 37° C.
T1 construct: Aβ42 was obtained from American Peptide, Inc. (Sunnyvale, Calif.); purchased American Peptide, Inc. (Sunnyvale, Calif.)

SH-SY5Y cells = assay: Cytotoxicity assay in differentiated SH-SY5Y cells treated with AβOs; type: cell-based, human; details: AβOs 1 μM
Description: Cytotoxicity assay in differentiated SH-SY5Y cells. SH-SY5Y cells were plated at 10,000 cells/well in type 1 collagen coated 96-well plates (Invitrogen) and were differentiated in Opti-MEM supplemented with 2% B-27 (Invitrogen) and 10 μM all-trans-retinoic acid for 7 days. The medium was removed and replaced with fresh maintenance medium. Freshly prepared Aβ42 oligomers in Ham's F-12 medium (1 μM) was added to cells for 48 hrs at 37° C. with or without test compounds. After treatment, 20 uL CellTiter 96 AQueous One Solution (Promega, Madison, Wis.) were added to each well and the plates were incubated at 37° C., 5% CO2 for 2-4 hrs. The plates were read at 490 nm in FlexStation III plate reader (Molecular Devices). Each data point was averaged from six replicates and the experiments were independently repeated at least three times.

[3] = tested on: intracellular oxidative stress; assay: DCFH-DA antioxidation assay in MC65 cells; type: cell-based, human; details: −TC, 24 hrs
Description: DCFH-DA antioxidation assay. MC65 cells were seeded in 96-well plates (4×10^4 cells/well). After incubation at 37° C., 5% CO2 for 24 hrs, the medium was removed and washed with PBS. Opti-MEM and test compounds were added (+TC, −TC, and blank with only test compounds). MC65 cells were incubated at 37° C., 5% CO2 for 24 hrs. Then DCFH-DA in Opti-MEM was added to each well (final DCFH-DA concentration was 25 uM) and incubate at 37° C., 5% CO2 for 30 min. The medium was removed and replaced with fresh opti-MEM and plates were read for fluorescence intensity at 485 nm (excitation)/530 nm (emission) using FlexStation III plate reader (Molecular Devices).

T1 sequence (P05067 672-713 limits assumed): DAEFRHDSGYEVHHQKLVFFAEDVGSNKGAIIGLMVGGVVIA

SMILES: CC(=O)N[C@@H](CS)C(=O)O [NAC, N-acetylcysteine]
rescue of MC65 cells from AβOs-induced cytotoxicity (MC65 cells; −TC): 48%

inhibition of oligomerization of Aβ42 (Aβ42): inhibited the oligomerization of Aβ42
SMILES: COc1cc(/C=C/C(=O)CC(=O)/C=C/c2ccc(O)c(OC)c2)ccc1O [compound 1, curcumin, reference compound]
inhibition of the formation of AβOs (Western blot) (AβOs [1]): did not exhibit inhibition
formation of AβOs (A11 immunocytochemistry) (AβOs [2]): slightly suppressed
toxic effects on MC65 cell viability in the presence of TC (MC65 cells; +TC, tested concentrations, 72 hrs, MTS): no toxic effects
protective effects on MC65 cell viability upon removal of TC (MC65 cells; −TC, 72 hrs, MTS): minimal protective effects
protection of SH-SY5Y cell viability from AβOs (SH-SY5Y cells; 48 hrs, 16 μM): not at 16 μM
protection of SH-SY5Y cell viability from AβOs (SH-SY5Y cells; 48 hrs, 2, 4, and 8 μM): moderate protective activities
suppression of intracellular oxidative stress (DCFH-DA fluorescence) [3]: suppressed the intracellular oxidative stress in a dose-depndent manner

SMILES: Cc1c(C)c2c(c(C)c1O)CCC(C)(C(=O)O)O2 (stereo not shown) [trolox, 6-hydroxy-2,5,7,8-tetramethyl chroman-2-carboxylic acid]
rescue of MC65 cells from AβOs-induced cytotoxicity (MC65 cells; −TC, 32 μM): completely rescued
